Results: ChEMBL document CHEMBL1201862, “PubChem BioAssay data set” (2004)
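Briefly, cells in 96-well plates were exposed to five compound concentrations for 48 h, and endpoints were estimated by linear interpolation. GI50 = concentration required for 50% inhibition of growth.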 Calls of active or inactive are those of the source. Rule as the data show it: active = GI50 up to about 1.1 µM and inactive = higher. Bridge positions count the residues as written; N and C are the ends. Where a SMILES comes first, the peptide text is derived from it. Peptide text beside a SMILES is read from it. [ ]: non-standard residue; d: D form. * marks the point of attachment. Aoe = N[C@@H](CCCCCC(=O)[C@@H]1CO1)C(=O)O; Cbz = O=C(OCc1ccccc1)*

Legend:
Experiment in all cases: DTP human tumour cell line panel, 48 h
SF-268 = tested on: SF-268
786-0 = tested on: 786-0
NCI-H460 = tested on: NCI-H460
SK-MEL-5 = tested on: SK-MEL-5
U-251 = tested on: U-251
NCI-H23 = tested on: NCI-H23
OVCAR-8 = tested on: OVCAR-8
RPMI-8226 = tested on: RPMI-8226
SK-OV-3 = tested on: SK-OV-3
COLO 205 = tested on: COLO 205
SR = tested on: SR
SN12C = tested on: SN12C
M14 = tested on: M14
UACC-257 = tested on: UACC-257
HCT-116 = tested on: HCT-116
LOX IMVI = tested on: LOX IMVI
MOLT-4 = tested on: MOLT-4
A498 = tested on: A498

SMILES	GI50 (SF-268)	GI50 (786-0)	GI50 (NCI-H460)	GI50 (SK-MEL-5)	GI50 (U-251)	GI50 (NCI-H23)	GI50 (OVCAR-8)	GI50 (RPMI-8226)	GI50 (SK-OV-3)	GI50 (COLO 205)	GI50 (SR)	GI50 (SN12C)	GI50 (M14)	GI50 (UACC-257)	GI50 (HCT-116)	GI50 (LOX IMVI)	GI50 (MOLT-4)	GI50 (A498)
CC1(C)N=C(/C(Cl)=[N+](/[O-])C(=O)c2ccc(F)cc2)C(C)(C)N1O	16.9 µM (inactive)	14.6 µM (inactive)	31.9 µM (inactive)	16.4 µM (inactive)	> 10 µM (inactive)	17.1 µM (inactive)	17.5 µM (inactive)	14.2 µM (inactive)	22.6 µM (inactive)	18.5 µM (inactive)	4.16 µM (inactive)	15.8 µM (inactive)	16.1 µM (inactive)	17.1 µM (inactive)	16.4 µM (inactive)	11.7 µM (inactive)		
O=C(O)CCCc1ccc2c(c1)C(C(=O)O)CC2 (centres undefined)	> 100 µM (inactive)	> 100 µM (inactive)	> 100 µM (inactive)	> 100 µM (inactive)	> 100 µM (inactive)	> 100 µM (inactive)	> 100 µM (inactive)	> 100 µM (inactive)	> 100 µM (inactive)	> 100 µM (inactive)	> 100 µM (inactive)	> 100 µM (inactive)	> 100 µM (inactive)	> 100 µM (inactive)	> 100 µM (inactive)	> 100 µM (inactive)	> 100 µM (inactive)	
CN(C)C(=O)c1nnsc1NN=O	> 100 µM (inactive)	> 100 µM (inactive)	> 100 µM (inactive)	> 100 µM (inactive)	> 100 µM (inactive)	> 100 µM (inactive)	> 100 µM (inactive)	> 100 µM (inactive)	> 100 µM (inactive)	> 100 µM (inactive)	> 100 µM (inactive)	> 100 µM (inactive)	> 100 µM (inactive)	> 100 µM (inactive)	> 100 µM (inactive)	> 100 µM (inactive)	> 100 µM (inactive)	
Cc1ccc(-n2cc([Si](C)(C)C)nn2)s1	> 100 µM (inactive)	> 100 µM (inactive)	> 100 µM (inactive)	45.4 µM (inactive)	> 100 µM (inactive)	68.4 µM (inactive)	> 100 µM (inactive)	22.9 µM (inactive)	> 100 µM (inactive)	61.8 µM (inactive)		> 100 µM (inactive)	> 100 µM (inactive)	> 100 µM (inactive)	> 100 µM (inactive)	> 100 µM (inactive)		> 100 µM (inactive)
CC1(C)[C@@H]2C[C@H]1C(Cc1cccc(C[C@H]3c4cc(-c5ccccn5)ncc4[C@H]4C[C@@H]3C4(C)C)c1)c1cc(-c3ccccn3)ncc12 (some centres undefined)	0.513 µM (active)	0.32 µM (active)	0.689 µM (active)	0.303 µM (active)	0.514 µM (active)	1.82 µM (inactive)	0.478 µM (active)	1.39 µM (inactive)	1.25 µM (inactive)	0.452 µM (active)		0.834 µM (active)	0.485 µM (active)	1.48 µM (inactive)	0.428 µM (active)	0.556 µM (active)	0.312 µM (active)	3.51 µM (inactive)
CC(=O)N1C(Nc2ccccn2)CCN1c1ccccc1 (centres undefined)	> 10 µM (inactive)	> 10 µM (inactive)	> 10 µM (inactive)	> 10 µM (inactive)		> 10 µM (inactive)	> 10 µM (inactive)	> 10 µM (inactive)	> 10 µM (inactive)	> 10 µM (inactive)	> 10 µM (inactive)	> 10 µM (inactive)	> 10 µM (inactive)	> 10 µM (inactive)	> 10 µM (inactive)	> 10 µM (inactive)	> 10 µM (inactive)	
CNC(=O)C1CCCCNC(=O)CCC(NC(=O)OCc2ccccc2)C(=O)N1 (stereo not drawn) (Cbz-Glu-Lys-NHMe; lactam 1-2; configuration not given here)	> 100 µM (inactive)	> 100 µM (inactive)	> 100 µM (inactive)	> 100 µM (inactive)	> 100 µM (inactive)	> 100 µM (inactive)	> 100 µM (inactive)	> 100 µM (inactive)	> 100 µM (inactive)	> 100 µM (inactive)		> 100 µM (inactive)	> 100 µM (inactive)	> 100 µM (inactive)	> 100 µM (inactive)	> 100 µM (inactive)	> 100 µM (inactive)	39.5 µM (inactive)
O=C(Nc1ccccc1)c1cc(S(=O)(=O)Nc2nc3cccnc3[nH]2)c(SSc2cc(Cl)c(C(=O)Nc3ccccc3)cc2S(=O)(=O)Nc2nc3cccnc3[nH]2)cc1Cl	> 100 µM (inactive)	> 100 µM (inactive)	> 100 µM (inactive)	> 100 µM (inactive)	> 100 µM (inactive)	> 100 µM (inactive)	> 100 µM (inactive)	> 100 µM (inactive)	> 100 µM (inactive)	> 100 µM (inactive)		> 100 µM (inactive)	> 100 µM (inactive)	> 100 µM (inactive)	> 100 µM (inactive)	> 100 µM (inactive)	> 100 µM (inactive)	> 100 µM (inactive)
Cc1nc(=O)[nH]c2c1C(=O)N(C(C)C)C(NC(C)C)S2 (centres undefined)		> 100 µM (inactive)		> 100 µM (inactive)	> 100 µM (inactive)	> 100 µM (inactive)	> 100 µM (inactive)	> 100 µM (inactive)	> 100 µM (inactive)	> 100 µM (inactive)		> 100 µM (inactive)	> 100 µM (inactive)	> 100 µM (inactive)	> 100 µM (inactive)	83.6 µM (inactive)	> 100 µM (inactive)	> 100 µM (inactive)
Cc1ccc(S(=O)(=O)NC(=O)NS(=O)(=O)O)cc1	> 100 µM (inactive)	> 100 µM (inactive)	> 100 µM (inactive)	> 100 µM (inactive)	> 100 µM (inactive)	> 100 µM (inactive)	> 100 µM (inactive)	0.0771 µM (active)	> 100 µM (inactive)	> 100 µM (inactive)	< 0.01 µM (active)	> 100 µM (inactive)	> 100 µM (inactive)	> 100 µM (inactive)	> 100 µM (inactive)	> 100 µM (inactive)	> 100 µM (inactive)	
O=c1cc(N2CCCC2)[nH]c(=O)n1-c1cccc(Cl)c1	> 100 µM (inactive)	> 100 µM (inactive)	> 100 µM (inactive)		> 100 µM (inactive)	> 100 µM (inactive)	> 100 µM (inactive)	> 100 µM (inactive)	> 100 µM (inactive)	> 100 µM (inactive)		> 100 µM (inactive)	> 100 µM (inactive)	> 100 µM (inactive)	> 100 µM (inactive)	> 100 µM (inactive)	> 100 µM (inactive)	> 100 µM (inactive)
Clc1cccc(-c2sc(-c3ccsc3)cc2Cc2ccsc2)c1	> 10 µM (inactive)	> 10 µM (inactive)		> 10 µM (inactive)		> 10 µM (inactive)	> 10 µM (inactive)	> 10 µM (inactive)	> 10 µM (inactive)	> 10 µM (inactive)	> 10 µM (inactive)	> 10 µM (inactive)	> 10 µM (inactive)	> 10 µM (inactive)		> 10 µM (inactive)	> 10 µM (inactive)	
O=C1N[C@@H](Cc2ccccc2)C(=O)N2CCC[C@@H]2C(=O)N[C@@H](CCCCCC(=O)[C@@H]2CO2)C(=O)N[C@H]1Cc1ccccc1 [TRAPOXIN B] (cyclo(FF[dP][Aoe]))	0.0119 µM (active)	0.00294 µM (active)	0.011 µM (active)	0.000497 µM (active)	0.0027 µM (active)		< 0.000212 µM (active)	0.000332 µM (active)	0.05 µM (active)	0.000778 µM (active)		0.0104 µM (active)	0.000597 µM (active)		0.000256 µM (active)	0.000472 µM (active)	< 0.000212 µM (active)	0.518 µM (active)
Cc1cccc2c1Oc1cc(Cl)ccc1C2NC(=O)CCN1CCOCC1 (centres undefined)	> 100 µM (inactive)	> 100 µM (inactive)	> 100 µM (inactive)	> 100 µM (inactive)	> 100 µM (inactive)	> 100 µM (inactive)	> 100 µM (inactive)		> 100 µM (inactive)	> 100 µM (inactive)	> 100 µM (inactive)	> 100 µM (inactive)	> 100 µM (inactive)	> 100 µM (inactive)	> 100 µM (inactive)	> 100 µM (inactive)	49.4 µM (inactive)	
CC1(c2ccc(Cl)s2)CC(c2ccc(Cl)s2)=C(C#N)C(=C(C#N)C#N)N1 (centres undefined)	20.7 µM (inactive)	19.8 µM (inactive)	29 µM (inactive)	15.2 µM (inactive)	17.3 µM (inactive)	21.2 µM (inactive)	20.8 µM (inactive)	32 µM (inactive)	16.9 µM (inactive)	19.9 µM (inactive)		21 µM (inactive)	19.4 µM (inactive)	21.9 µM (inactive)	17.3 µM (inactive)	22.3 µM (inactive)	28.1 µM (inactive)	19.4 µM (inactive)
COC(=O)c1c(-c2ccc(Cl)cc2)cc2c3ccccc3n(C)c2c1C(=O)OC	> 100 µM (inactive)	> 100 µM (inactive)	49.8 µM (inactive)	> 100 µM (inactive)	> 100 µM (inactive)	> 100 µM (inactive)	> 100 µM (inactive)		> 100 µM (inactive)	> 100 µM (inactive)		> 100 µM (inactive)	> 100 µM (inactive)	64.7 µM (inactive)	> 100 µM (inactive)	> 100 µM (inactive)	23.1 µM (inactive)	> 100 µM (inactive)
